Laboratory results reported in patent US20240368191A1, “HETEROCYCLIC COMPOUNDS AND USES THEREOF” (Kumquat Biosciences Inc., priority 2021, published 2024).

Target: T1, KRAS G12D 1-169 (His-tagged, GDP-loaded) (Homo sapiens, UniProt P01116, G12D)
T1 construct: His -tagged GDP-loaded G12D 1-169; made in house; host or cells: E. coli, e.g. BL21 (DE3)
Assay: Covalent modification of KRAS protein by intact-protein LC-MS
Format: binding
Details: comparable or same conditions as K-Ras G12S
Experimental: Test compounds are prepared as 10 mM stock solutions in DMSO (Fisher cat #BP231-100). KRAS protein (His -tagged GDP-loaded wildtype 1-169, His -tagged GDP-loaded G12S 1-169 or His -tagged GDP-loaded G12D 1-169) is diluted to ˜2 μM in appropriate buffer (e.g., a Hepes buffer at physiological conditions). For testing KRAS modification, compounds are diluted to 50× final test concentration in DMSO in 96-well storage plates. 2 μl of the diluted 50× compounds are added to appropriate wells in the PCR plate (Fisher cat #AB-0800). ˜49 μl of the stock protein solution is added to each well of the 96-well PCR plate. Reactions are mixed carefully. The plate is sealed well with aluminum plate seal, and stored in drawer at room temperature for 24 hrs. 5 μl of 2% formic acid (Fisher cat #A117-50) in MilliQ H2O is then added to each well followed by mixing with a pipette. The plate is then resealed with aluminum seal and stored until mass spectrometry analysis.
The extent of covalent modification of KRAS proteins was determined by liquid chromatography electrospray mass spectrometry analysis of the intact proteins on a Thermo Q-Exactive Plus mass spectrometer. 20 μl of sample was injected onto a bioZen 3.6 μm Intact C4 column (Phenomenex cat #00B-4767-AN) placed in a column oven set to 40° C. and separated using a suitable LC gradient from ˜20% to ˜60% solvent B. Solvent A was 0.1% formic acid and solvent B was 0.1% formic acid in acetonitrile. HESI source settings were set to 40, 5 and 1 for the sheath, auxiliary and sweep gas flow, respectively. The spray voltage was 4 kV, and the capillary temperature was 320° C. S-lens RF level was 50 and auxiliary gas heater temperature was set to 200° C. The mass spectrometry was acquired using a scan range from 650 to 1750 m/z using positive polarity at a mass resolution of 70,000, AGC target of 1e6 ions and maximum injection time of 250 ms. The recorded protein mass spectrum was deconvoluted from the raw data file using Protein Deconvolution v4.0 (Thermo). The protein mass and adduct masses were exported with their peak intensities. The peak intensities for the unmodified and modified protein were used to calculate the percent covalent modification of the KRAS protein based on the following equation: % KRAS protein modification=((KRAS−compound)/(KRAS)+(KRAS−Compound))*100.

T1 sequence (P01116 1-169 isoform P01116-2 G12D): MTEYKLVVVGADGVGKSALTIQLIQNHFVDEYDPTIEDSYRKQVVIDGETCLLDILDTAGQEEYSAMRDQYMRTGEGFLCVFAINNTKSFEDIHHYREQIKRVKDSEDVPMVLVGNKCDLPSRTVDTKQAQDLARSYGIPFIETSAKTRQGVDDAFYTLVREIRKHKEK

Row | Compound | covalent labeling of K-Ras G12D
1 | COCCN1CCC(Oc2nc(N3CCCCC4(CN(C(=O)n5cncn5)C4)C3)c3cc(Cl)c(-c4ccc(F)c5sc(N)c(C#N)c45)c(F)c3n2)CC1 [Compound A119, 4-(4-(2-(1H-1,2,4-triazole-1-carbonyl)-2,6-diazaspiro[3.6]-decan-6-yl)-6-chloro-8-fluoro-2-((1-(2-methoxyethyl)piperi-din-4-yl)oxy)quinazolin-7-yl)-2-amino-7-fluorobenzo[b]-thiophene-3-carbonitrile] | essentially no detectable labeling
2 | N#Cc1c(N)sc2c(F)ccc(-c3ncc4c(N5CCCC6(CN(C(=O)n7cncn7)C6)C5)nc(OC[C@@]56CCCN5C[C@H](F)C6)nc4c3F)c12 [Compound A134, 4-(4-(2-(1H-1,2,4-triazole-1-carbonyl)-2,6-diazaspiro[3.5]-nonan-6-yl)-8-fluoro-2-(((2R,7aS)-2-fluorotetrahydro-1H-pyrrolizin-7a(5H)-yl)meth-oxy)pyrido[4,3-d]pyrimidin-7-yl)-2-amino-7-fluorobenzo[b]-thiophene-3-carbonitrile] | essentially no detectable labeling
3 | N#Cc1c(N)sc2c(F)ccc(-c3ncc4c(N5CCOC6(CN(C(=O)n7cncn7)C6)C5)nc(OC[C@@]56CCCN5C[C@H](F)C6)nc4c3F)c12 [Compound A161, 4-(4-(2-(1H-1,2,4-triazole-1-carbonyl)-5-oxa-2,8-diaza-spiro[3.5]nonan-8-yl)-8-fluoro-2-(((2R,7aS)-2-fluorotetrahydro-1H-pyrrolizin-7a(5H)-yl)meth-oxy)pyrido[4,3-d]pyrimidin-7-yl)-2-amino-7-fluorobenzo[b]-thiophene-3-carbonitrile] | essentially no detectable labeling
4 | N#Cc1c(N)sc2c(F)ccc(-c3c(Cl)cc4c(N5CCOC6(CN(C(=O)n7cncn7)C6)C5)nc(OC[C@@]56CCCN5C[C@H](F)C6)nc4c3F)c12 [Compound A162, 4-(4-(2-(1H-1,2,4-triazole-1-carbonyl)-5-oxa-2,8-diaza-spiro[3.5]nonan-8-yl)-6-chloro-8-fluoro-2-(((2R,7aS)-2-fluoro-tetrahydro-1H-pyrrolizin-7a(5H)-yl)methoxy)quinazolin-7-yl)-2-amino-7-fluorobenzo-[b]thiophene-3-carbonitrile] | essentially no detectable labeling
5 | Cc1nc(C)n(C(=O)N2CC3(COCCN(c4nc(OC[C@@]56CCCN5C[C@H](F)C6)nc5c(F)c(-c6ccc(F)c7sc(N)c(C#N)c67)c(Cl)cc45)C3)C2)n1 [Compound A185, 2-amino-4-(6-chloro-4-(2-(3,5-dimethyl-1H-1,2,4-triazole-1-carbonyl)-6-oxa-2,9-diazaspiro-[3.6]decan-9-yl)-8-fluoro-2-(((2R,7aS)-2-fluorotetrahydro-1H-pyrrolizin-7a(5H)-yl)meth-oxy)quinazolin-7-yl)-7-fluoro-benzo[b]thiophene-3-carbonitrile] | essentially no detectable labeling
6 | N#Cc1c(N)sc2c(F)ccc(-c3c(Cl)cc4c(N5CCOC6(CN(C(=O)n7ccnn7)C6)C5)nc(OC[C@@]56CCCN5C[C@H](F)C6)nc4c3F)c12 [Compound A195, 4-(4-(2-(1H-1,2,3-triazole-1-carbonyl)-5-oxa-2,8-diazaspiro-[3.5]nonan-8-yl)-6-chloro-8-fluoro-2-(((2R,7aS)-2-fluoro-tetrahydro-1H-pyrrolizin-7a(5H)-yl)methoxy)quinazolin-7-yl)-2-amino-7-fluorobenzo-[b]thiophene-3-carbonitrile] | essentially no detectable labeling

Now from value to molecule:

Row | covalent labeling of K-Ras G12D | Compound
7 | essentially no detectable labeling | Nc1nc2c(-c3c(Cl)cc4c(N5CCCC6(CN(C(=O)n7cncn7)CCO6)C5)nc(OC[C@@]56CCCN5C[C@H](F)C6)nc4c3F)ccc(F)c2s1 (stereo partly drawn) [Compound A125, (8-(7-(2-amino-7-fluorobenzo-[d]thiazol-4-yl)-6-chloro-8-fluoro-2-(((2R,7aS)-2-fluoro-tetrahydro-1H-pyrrolizin-7a(5H)-yl)methoxy)quinazolin-4-yl)-1-oxa-4,8-diazaspiro[5.5]-undecan-4-yl)(1H-1,2,4-triazol-1-yl)methanone]
8 | essentially no detectable labeling | N#Cc1c(N)sc2c(F)ccc(-c3c(Cl)cc4c(OC5CCCCN(C(=O)n6cncn6)C5)nc(OC[C@@]56CCCN5C[C@H](F)C6)nc4c3F)c12 (stereo partly drawn) [Compound A169, 4-(4-((1-(1H-1,2,4-triazole-1-carbonyl)azepan-3-yl)oxy)-6-chloro-8-fluoro-2-(((2R,7aS)-2-fluorotetrahydro-1H-pyrrolizin-7a(5H)-yl)methoxy)quinazolin-7-yl)-2-amino-7-fluorobenzo-[b]thiophene-3-carbonitrile]
9 | essentially no detectable labeling | Nc1nc2c(-c3c(Cl)cc4c(N5CCC56CCCN(C(=O)n5cncn5)C6)nc(OCC56CCCN5CC(F)C6)nc4c3F)ccc(F)c2s1 (stereo not shown) [Compound A197, (1-(7-(2-amino-7-fluorobenzo-[d]thiazol-4-yl)-6-chloro-8-fluoro-2-((2-fluorotetrahydro-1H-pyrrolizin-7a(5H)-yl)meth-oxy)quinazolin-4-yl)-1,6-diazaspiro[3.5]nonan-6-yl)(1H-1,2,4-triazol-1-yl)methanone]
10 | essentially no detectable labeling | Nc1nc2c(-c3c(Cl)cc4c(N5CCC6(CN(C(=O)n7cncn7)CCO6)C5)nc(OC[C@@]56CCCN5C[C@H](F)C6)nc4c3F)ccc(F)c2s1 (stereo partly drawn) [Compound A202, (2-(7-(2-amino-7-fluorobenzo-[d]thiazol-4-yl)-6-chloro-8-fluoro-2-(((2R,7aS)-2-fluoro-tetrahydro-1H-pyrrolizin-7a(5H)-yl)methoxy)quinazolin-4-yl)-6-oxa-2,9-diazaspiro[4.5]-decan-9-yl)(1H-1,2,4-triazol-1-yl)methanone]
11 | essentially no detectable labeling | Nc1nc2c(-c3c(Cl)cc4c(N5CCC56CCCN(C(=O)n5cncn5)CC6)nc(OC[C@@]56CCCN5C[C@H](F)C6)nc4c3F)ccc(F)c2s1 (stereo partly drawn) [Compound A209, (1-(7-(2-amino-7-fluorobenzo-[d]thiazol-4-yl)-6-chloro-8-fluoro-2-(((2R,7aS)-2-fluoro-tetrahydro-1H-pyrrolizin-7a(5H)-yl)methoxy)quinazolin-4-yl)-1,7-diazaspiro[3.6]decan-7-yl)(1H-1,2,4-triazol-1-yl)-methanone]
12 | essentially no detectable labeling | Nc1nc2c(-c3c(Cl)cc4c(N5CC6(CCCN(C(=O)n7cncn7)C6)C5)nc(OC[C@@]56CCCN5C[C@H](F)C6)nc4c3F)ccc(F)c2s1 [Compound A230, (2-(7-(2-amino-7-fluorobenzo-[d]thiazol-4-yl)-6-chloro-8-fluoro-2-(((2R,7aS)-2-fluoro-tetrahydro-1H-pyrrolizin-7a(5H)-yl)methoxy)quinazolin-4-yl)-2,6-diazaspiro[3.5]nonan-6-yl)(1H-1,2,4-triazol-1-yl)-methanone]
13 | essentially no detectable labeling | Nc1nc2c(-c3c(Cl)cc4c(N5CCOC6(CCN(C(=O)n7cncn7)CC6)C5)nc(OCC56CCCN5C[C@H](F)C6)nc4c3F)ccc(F)c2s1 (stereo partly drawn) [Compound A243, (4-(7-(2-amino-7-fluorobenzo-[d]thiazol-4-yl)-6-chloro-8-fluoro-2-(((2R)-2-fluorotetra-hydro-1H-pyrrolizin-7a(5H)-yl)methoxy)quinazolin-4-yl)-1-oxa-4,9-diazaspiro[5.5]undecan-9-yl)(1H-1,2,4-triazol-1-yl)-methanone]
